Assay [1] deals with T1, adenosine kinase of T. b. rhodesiense (TbrAK) (Trypanosoma brucei rhodesiense, UniProt Q584S0).
T1 sequence (Q584S0 1-345): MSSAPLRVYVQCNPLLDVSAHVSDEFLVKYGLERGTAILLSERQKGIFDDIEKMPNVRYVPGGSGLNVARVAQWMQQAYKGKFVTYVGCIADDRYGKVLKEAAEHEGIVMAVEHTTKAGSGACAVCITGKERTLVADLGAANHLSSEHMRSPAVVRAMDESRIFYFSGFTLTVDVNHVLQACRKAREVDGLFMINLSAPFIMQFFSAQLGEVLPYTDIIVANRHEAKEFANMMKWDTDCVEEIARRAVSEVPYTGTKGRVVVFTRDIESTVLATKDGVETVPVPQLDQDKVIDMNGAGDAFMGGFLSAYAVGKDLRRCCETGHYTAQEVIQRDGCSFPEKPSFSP
The experiment in a line: Isothermal titration calorimetry (ITC) with TbrAK. It counts as binding. The settings on record: for Kd: two-sites non-interacting binding model. As to the method: Isothermal titration calorimetry (ITC) was employed to elucidate the binding affinity of compound 1 toward TbrAK. All solutions were degassed for 5 min with gentle stirring under vacuum. TbrAK was dialyzed into buffer E2 (20 mM Tris, 150 mM NaCl, pH 7.5, 5% glycerol), diluted to 7 µM and supplemented with 1% DMSO, filtered and filled into the sample cell. The ligand solution was prepared by diluting a stock solution of compound 1 or 5 in DMSO with buffer E2 to give a final concentration of 150 µM and 1% DMSO. The final ligand solution was filtered before use. A titration experiment consisted of a first control injection of 1 µl followed by 27 injections, each of 10 µl and 20 s duration, with a 4-min interval in between. Raw data were collected, corrected for ligand heats of dilution, integrated and fit to the two-set non-interacting binding sites model using the Origin® software supplied with the instrument. The measurements were performed at least in duplicate.

Assay [2] concerns the target T1, adenosine kinase of T. b. rhodesiense (TbrAK). The experiment in a line: Radiometric assay for EC50 determination (TbrAK hyperactivation). It counts as biochemical. The following applies: 12 µM [2-3H]adenosine, 167 µM ATP, 0.88 nM TbrAK, 37°C. On the procedure:
Radiometric assay for EC50 determination
The EC50 for hyperactivation of TbrAK by compound 1 was obtained by monitoring the conversion of [2-3H]adenosine to [2-3H]AMP. Reactions were executed at 37°C in a final volume of 30 µl containing 20 mM Hepes, 50 mM NaCl, 167 µM ATP, 167 µM MgCl2, 0.33 % BSA, and 1.0 % DMSO. The concentration of [2-3H]adenosine was kept constant at 12 µM while compound 1 was varied in the range of 0-100 µM. The reaction was started by the addition of 1 ng (0.88 nM) TbrAK. The reactions were incubated and 5 µl aliquots were spotted on 5 mm diameter DE81-cellulose disks placed in a 96-well plate to stop the reaction. The disks were washed 3 times with 250 µl 5 mM ammonium formate, once with H2O, transferred to scintillation vials, and then soaked with 2 ml of the displacement solution (100 mM HCl, 200 mM KCl) and gently shaken for 1 minute to elute the phosphorylated product. After adding 10 ml scintillation liquid, the samples were counted. For comparative reasons the activity recorded in absence of compound was set to 100 %. The mean of four independent measurements is reported.

The structures appear in SMILES notation. Read-outs that look alike come from different tables or passages of the source.

What is called Kd is the constant that tells how readily two partners part at equilibrium. The EC50 is the concentration that produces a half-maximal response. Lower therefore signals an effect from little substance. Take `c1ccc(Oc2ccc(-c3cc(N4CCOCC4)[nH]n3)cc2)cc1` [compound 1, 4-[5-(4-phenoxyphenyl)-2H-pyrazol-3-yl]morpholine]: in assay [1], the “molecules of compound bound per molecule of enzyme” value is given as “two”; the “ΔHbind, high affinity binding site” value is -3.05 ± 0.77 kcal/mol; the “ΔHbind, low affinity binding site” value was -1.13 ± 0.24 kcal/mol. In addition, in assay [1] (read-out: KD, high affinity binding site), the Kd came out at 75 ± 20 nM. For the same molecule, the Kd in assay [1] (read-out: KD, low affinity binding site) amounted to 497 ± 34 nM. Moreover, in assay [2], a half-maximal response (EC50) required 38 ± 12 nM.

The values above are taken from publication PMC2724708, “Adenosine Kinase of T. b. rhodesiense Identified as the Putative Target of 4-[5-(4-phenoxyphenyl)-2H-pyrazol-3-yl]morpholine Using Chemical Proteomics” (PLoS Neglected Tropical Diseases, 2009).
